Here are results for five compounds from PMC3039446 (Cancer research, 2010).

What is called AUC is concentration integrated over time. What is called Vss is the apparent volume that relates the amount in the body to the concentration in plasma or blood.

Entries after “also recorded” stand apart in the source; their conditions may differ. Read-outs that look alike come from different tables or passages of the source. Marks after values point to notes of the source that are not given here. Bounds are passed on as bounds.

The subject of one data set is OVCAR-8. In words: SRB cytotoxicity assay, OVCAR-8. Type of data set: cell-based, human. (In general: Sulforhodamine B stains cellular protein and so reports cell mass.)
Data set [1] deals with PPC-1. In words: SRB cytotoxicity assay, PPC-1. The class given is cell-based, human.
In the next data set the test system is Bovine brain tubulin. Briefly: In vitro microtubule. Type of data set: biochemical. The conditions noted are these: 10 μM compound, absorbance 340 nm, 15 min.
Data set [2] can be described thus: Pharmacokinetic study in Sprague-Dawley rats, i.v. The settings on record: 2.5 mg/kg i.v.
Data set [3] concerns LNCaP. The settings on record: read-out: IC50 ± SEM; LNCaP prostate, SRB; previously reported ref 11; cited from earlier work.
Data set [4] can be described thus: Pharmacokinetic study in ICR mice, i.v. The conditions noted are these: 15 mg/kg i.v.
Data set [5] deals with A375. The settings on record: read-out: IC50 ± SEM; A375 melanoma, SRB; previously reported ref 11; cited from earlier work.
For data set [6], the system named is PC-3. The conditions noted are these: read-out: IC50 ± SEM; PC-3 prostate, SRB; previously reported ref 11; cited from earlier work.
Data set [7] deals with ICR mice. In words: Acute toxicity study in ICR mice. Type of data set: in vivo. The settings on record: 4 consecutive days of intraperitoneal dosing.
The conditions of data set [8]: rat, in vivo, iv, 2.5 mg/kg.
For data set [9], the system named is PC-3 prostate tumor xenograft. The settings on record: for %T/C values (range): both PC-3 and A375 xenograft models, doses 5 to 20 mg/kg.
Data set [10] deals with B16-F1. The settings on record: read-out: IC50 ± SEM; B16-F1 melanoma, SRB; previously reported ref 11; cited from earlier work.
In another data set the test system is A375 melanoma xenograft. The settings on record: 34 days; for % T/C: A375 melanoma xenograft; for Tumor volume at end of treatment: A375 xenograft, control 2183 ± 279.
A further data set concerns PC-3 cells. The class given is cell-based, human.
The conditions of data set [11]: cited from earlier work.
Data set [12] deals with ICR mice. Briefly: Rotarod test.
Data set [13] has as its system PPC-1. The settings on record: read-out: IC50 ± SEM; PPC-1 prostate, SRB; previously reported ref 11; cited from earlier work.
Data set [14] concerns ICR mice. The conditions noted are these: mouse, 15 mg/kg.
Another data set has as its system tubulin. Briefly: MS competitive binding assay on tubulin binding sites.
Data set [15] has as its system Du-145. The settings on record: read-out: IC50 ± SEM; Du-145 prostate, SRB; previously reported ref 11; cited from earlier work.
For data set [16] the following is noted: mice, 15 mg/kg i.v.; ref C. M. Li et al, in press; cited from earlier work.
In the next data set the test system is NCI/ADR-RES. Briefly: SRB cytotoxicity assay, NCI/ADR-RES. The class given is cell-based, human.
The test system of data set [17] is LNCaP. Briefly: SRB cytotoxicity assay, LNCaP. Type of data set: cell-based, human. The settings on record: read-out: IC50 ± SEM.
Data set [18] has as its system Du-145. In words: SRB cytotoxicity assay, Du-145. Type of data set: cell-based, human.
The subject of data set [19] is B16-F1. Briefly: SRB cytotoxicity assay, B16-F1. Type of data set: cell-based.
In data set [20] the test system is prostate cancer and melanoma cell lines. In words: SRB antiproliferative assay, ranges over the cell line panel. The class given is cell-based, human. The settings on record: read-out: IC50 (range over cell lines), Table 1 cell lines.
Data set [21] has as its system A375. In words: SRB cytotoxicity assay, A375. Type of data set: cell-based, human.
Data set [22] has as its system PC-3. In words: SRB cytotoxicity assay, PC-3. Type of data set: cell-based, human.
The test system of a further data set is PC-3 and A375 cells. Briefly: Apoptosis detection by ELISA. The class given is cell-based, human. The settings on record: 24 h treatment. (In an ELISA, binding on a coated surface is turned into a signal by an enzyme label.)
The mark [23] stands for this setting: Homo sapiens, PPC-1, read-out: IC50 ± SEM.
The mark [24] stands for this setting: read-out: IC50 ± SEM, OVCAR-8 ovarian (parent), SRB, n = 3.
Setting [25] is: PC-3 xenograft, 5 mg/kg, start 150 mm^3, control 680 ± 198.
Where [26] appears, read: PC-3 xenograft, 15 mg/kg, start 150 mm^3, control 680 ± 198.

Consider `CC(=O)O[C@H]1C(=O)[C@@]2(C)[C@H]([C@H](OC(=O)c3ccccc3)[C@]3(O)C[C@H](OC(=O)[C@H](O)[C@@H](NC(=O)c4ccccc4)c4ccccc4)C(C)=C1C3(C)C)[C@]1(OC(C)=O)CO[C@@H]1C[C@@H]2O` [Paclitaxel], for which the IC50 with OVCAR-8 (Homo sapiens, OVCAR-8, read-out: IC50 ± SEM) is 4.7 ± 0.1 nM; in the data set on PPC-1 [1] (setting [23]) it was 2.3 ± 0.8 nM.
In the case of `COc1cc(C(=O)c2csc(-c3ccc(F)cc3)n2)cc(OC)c1OC` [SMART-F], the “Inhibition of tubulin polymerization” value with Bovine brain tubulin worked out at 90%. Also, the results for the t1/2 in data set [2] and in [4] were 40.17 h and 2.35 h, respectively. Moreover, the IC50 with LNCaP [3] is 6 ± 1 nM; in the data set with A375 [5], 33 ± 14 nM; in the data set on PC-3 [6] it was 13 ± 1 nM; in the data set on OVCAR-8 (setting [24]), 34 ± 3 nM; in the data set on B16-F1 [10], 43 ± 21 nM. The “Doses that did not cause greater than 10% loss of body weight” value with ICR mice [7] is recorded as ≤ 15 mg/kg. Further, the AUC in [8] turned out to be 1600 ng·h/mL. Moreover, in data set [8], the CL came out at 11 mL/min/kg. For the same compound, the volume of distribution (Vss) in data set [8] was 34 L/kg. The entries for the “Tumor volume by day 21” value in data set [9] (setting [25]) and in data set [9] (setting [26]) were 269 ± 177 mm^3 and 292 ± 103 mm^3, respectively. Further, in data set [9], the “%T/C values (range)” value is listed as 4–30%. The “% T/C” value in the data set with A375 melanoma xenograft (15 mg/kg i.p. daily, 15 mg/kg) was determined as 29%. The “Tumor volume at end of treatment” value in the data set with A375 melanoma xenograft (15 mg/kg) is listed as 722 ± 135 mm^3.
With `COc1cc(C(=O)c2csc(-c3ccccc3)n2)cc(OC)c1OC` [SMART-H], the “Inhibition of tubulin polymerization” value in the data set with Bovine brain tubulin is given as 90%. Further, the IC50 with LNCaP [3] is 28 ± 4 nM; with A375 [5], 28 ± 5 nM; with PC-3 cells (PC-3 cells from ATCC (in vitro control)), 29.1 ± 1.1 nM; with PC-3 cells (dissociated cells from SMART-H (15 mg/kg, 21 days) treated PC-3 tumors), 30.4 ± 0.5 nM; in the data set with PC-3 cells (dissociated cells from vehicle treated PC-3 tumors, 21 days), 29.1 ± 0.8 nM; in the data set with PPC-1 [13] it was 43 ± 5 nM. For the same compound, the IC50 was 21 ± 1 nM with PC-3 [6], 35 ± 2 nM in the data set with OVCAR-8 (setting [24]), 71 ± 4 nM in the data set with Du-145 [15] and 55 ± 5 nM in the data set on B16-F1 [10]. The AUC in [11] (rat, in vivo, iv, 2.5 mg/kg) was 5.8 ^a hr * μg/mL. The CL in data set [11] (rat, in vivo, iv, 2.5 mg/kg) is 6 ^a mL/min/kg. Also, in [11] (rat, in vivo, iv, 2.5 mg/kg), the Vss was 7.6 ^a L/kg. Moreover, the t1/2 in data set [11] (rats, 2.5 mg/kg i.v., ref C. M. Li et al, in press) was 1431 ^a min; in [16], 140 ^a min. In addition, the “Rotarod performance (time on rotating rod) vs vehicle” value in the data set with ICR mice [12] (5 or 15 mg/kg i.p. daily, to day 31) is “no significant difference; also recorded: did not show significant impairment in motor coordination”. In addition, in the data set with ICR mice [14], the Neurotoxicity in vivo result was “failed to produce any apparent neurotoxicity”. Moreover, the “Competition with colchicine binding to tubulin” value in the data set with tubulin is “specifically competed with colchicine binding to tubulin”. Moreover, the “Competition with paclitaxel binding to tubulin” value in the data set on tubulin was “did not compete”. In addition, in the data set with tubulin, the “Competition with vinblastine binding to tubulin” value was “did not compete”. The “Doses that did not cause greater than 10% loss of body weight” value in the data set with ICR mice [7] is listed as “up to 30 mg/kg”. The figures for the “Tumor volume by day 21” value in [9] (setting [25]) and in [9] (setting [26]) were 370 ± 103 mm^3 and 176 ± 112 mm^3, respectively. In addition, in data set [9], the “%T/C values (range)” value was 4–30%. Further, in the data set with A375 melanoma xenograft (20 mg/kg i.p. daily, 20 mg/kg), the “% T/C” value turned out to be 28%. Further, the “Tumor volume at end of treatment” value with A375 melanoma xenograft (20 mg/kg) was determined as 775 ± 107 mm^3.
For `COc1cc(C(=O)c2csc(-c3ccc(O)cc3)n2)cc(OC)c1OC` [SMART-OH], the “Resistance Factor” value in the data set on NCI/ADR-RES (NCI/ADR-RES relative to OVCAR-8) is 0.4. Besides, the IC50 in the data set on NCI/ADR-RES (read-out: IC50 ± SEM, NCI/ADR-RES ovarian (P-gp over-expressing), SRB, n = 3) is 45 ± 5 nM; in the data set on LNCaP [17] (LNCaP prostate, SRB, n = 3) it was 103 ± 9 nM; with Du-145 [18] (read-out: IC50 ± SEM, Du-145 prostate, SRB, n = 3), 116 ± 14 nM; in the data set on B16-F1 [19] (read-out: IC50 ± SEM, B16-F1 melanoma, SRB, n = 3), 113 ± 6 nM; in the data set on OVCAR-8 (setting [24]), 110 ± 8 nM; in [20] it was 76 to 116 nM. Also, the IC50 was 93 ± 11 nM in the data set on A375 [21] (read-out: IC50 ± SEM, A375 melanoma, SRB, n = 3); 76 ± 2 nM in the data set on PPC-1 [1] (read-out: IC50 ± SEM, PPC-1 prostate, SRB, n = 3); 87 ± 5 nM with PC-3 [22] (read-out: IC50 ± SEM, PC-3 prostate, SRB, n = 3). For the same compound, the “Inhibition of tubulin polymerization” value in the data set on Bovine brain tubulin worked out at 55%. Also, in data set [9] (PC-3 xenograft model, SMART-OH at higher dosage), the “Potency relative to SMART-H (fold less)” value is reported as 10 fold. For the same compound, the “Tumor volume at day 21” value in data set [9] (PC-3 xenograft, 50 mg/kg, start 150 mm^3, control 680 ± 198) is on record as 331 ± 130 mm^3. Also, the “Concentration inducing apoptosis (cytoplasmic DNA-histone complexes)” value with PC-3 and A375 cells is given as ≥ 200 nM.
`CC[C@]1(O)C[C@@H]2CN(CCc3c([nH]c4ccccc34)[C@@](C(=O)OC)(c3cc4c(cc3OC)N(C)[C@H]3[C@@](O)(C(=O)OC)[C@H](OC(C)=O)[C@]5(CC)C=CCN6CC[C@]43[C@@H]65)C2)C1` [Vinblastine]: the IC50 is 1.1 ± 0.1 nM with LNCaP [17] (Homo sapiens, LNCaP); 1.8 ± 1.1 nM with Du-145 [18] (Homo sapiens, DU-145, read-out: IC50 ± SEM); 4.7 ± 0.7 nM in the data set on B16-F1 [19] (Mus musculus, B16-F1, read-out: IC50 ± SEM); 1.1 ± 0.2 nM in the data set with A375 [21] (Homo sapiens, A-375, read-out: IC50 ± SEM); 1.1 ± 0.4 nM in the data set with PPC-1 [1] (setting [23]); 2.1 ± 0.2 nM in the data set with PC-3 [22] (Homo sapiens, PC-3, read-out: IC50 ± SEM). The “Rotarod performance (time on rotating rod) vs vehicle” value with ICR mice [12] (0.5 mg/kg i.p. daily, to day 31, 0.5 mg/kg) is “gradually reduced the time (in seconds) that the mice could stay on the rotating rod, and attained significance by days 27 and 31; also recorded: lesser ability to stay on the rotating rod”. In the data set with ICR mice [12] (4 weeks after drug treatment was stopped), the “Rotarod post-observation after treatment stopped” value is listed as “failed to return to baseline”.
